# Experimental data: BindingDB's records for doi:10.1016/j.bmcl.2005.06.067 (Carlsson Research, 2005)
# Columns and labels:
# [1] = Inhibitory activity against 5-hydroxytryptamine 1D receptor in calf
# [2] = as above; remark: listed apart in the source
smiles,measurement,setting,value
"CCc1[nH]c2ccc(OC)cc2c1CCN(C)C [2-ethyl-5-methoxy-N,N-dimethyltryptamine]",IC50,[1],1.4 µM
"COc1ccc2[nH]c(C)c(C3=CCNCC3)c2c1 [5-Methoxy-2-methyl-3-(1,2,3,6-tetrahydro-pyridin-4-yl)-1H-indole]",IC50,[2],> 1 µM
